From patent publication US20260325533A1, “CDK INHIBITOR COMPOUNDS” (ALEKSIA THERAPEUTICS, INC., priority 2023, published 2026) come the findings set out here.

Where two headings read alike, the source gives them in different places.

Holding throughout (assay type): biochemical
In assay [1] the target is CDK4/CCND3 (Homo sapiens, UniProt P11802). Put plainly: CDK4 homogeneous time-resolved fluorescence (HTRF) kinase assay. The conditions noted are these: CDK4/CCND. As to the method:
A CDK homogeneous time-resolved fluorescence (HTRF) assay was used to assess the potency of the compounds described herein.
To an untreated 384-well microtiter plate (ProxiPlate) was added 100 nL 100×test compound in DMSO and 5 μL 2×CDK enzyme in assay buffer (50 mM HEPES, 1 mM EGTA, 10 mM MgCl2, 0.01% Tween 20, 2 mM DTT). The plate was centrifuged at 800 RPM for 1 min then incubated for 20 min at 23 °C. 2.5 μL per well of 4×ATP and 2.5 μL 4×ULight™-eIF4E-binding protein 1 (Thr37/46) Peptide substrate were added to all wells. After addition, the plates were centrifuged at 800 RPM for 1 min. The plates were incubated at 23 °C for 60 min. 5 μL per well 4×EDTA solution were added to each well to stop the reaction. 5 μL 4×LANCE Ultra Europium-anti-phospho-eIF4E-binding protein 1 (Thr37/46) antibody were added to each well and the plate was centrifuged for 1 min at 800 RPM. The plate was incubated for 60 min at 23 °C. Fluorescence was read at 340 nm excitation and 665 nm emission on an EnVision 2105 fluorescence reader. The final concentrations of reagents in the activity assay were 1.5 nM CDK4/CCND3, 1 mM ATP, 50 nM ULight™-eIF4E-binding protein 1 (Thr37/46) Peptide substrate, 1% DMSO, 10 mM EDTA, and 2 nM LANCE Ultra Europium-anti-phospho-eIF4E-binding protein 1 (Thr37/46).
Dose-response titrations were conducted by using an 11-point, half-logarithmic serial dilution scheme typically starting at 10 μM. Signals were reported as fluorescence units at 665 nm or the ratio of fluorescence units at 665 nm/fluorescence units at 615 nm. Signals are referred to below as “Lance signals”.
Using this assay, the IC50 values of example compounds were determined. Table 3 illustrates the IC50 for various Example compounds of Formula IA. Table 4 illustrates the IC50 for various other Example compounds of Formula I. ND=not determined.

For assay [2], the target named is CDK6/CCND1 (Homo sapiens, UniProt Q00534). In words: CDK6 homogeneous time-resolved fluorescence (HTRF) kinase assay. The conditions noted are these: CDK6/CCND. A digest of the protocol:
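Assay conditions: HEPES buffer containing 10 mM MgCl2, 1 mM EGTA, 2 mM DTT, 0.01% Tween 20; 1 nM CDK6/CCND1, 50 nM peptide substrate, 1 mM ATP. Detection after 60 min reaction used 2 nM europium antibody with 340 nm excitation. Potency fitted from half-log series, 11 points.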
On the technique in general: In TR-FRET formats the signal depends on donor and acceptor labels being close together.

The target of assay [3] is CDK1/CCNB1 (Homo sapiens, UniProt P06493). Put plainly: CDK1 homogeneous time-resolved fluorescence (HTRF) kinase assay. The conditions noted are these: CDK1/CCNB. The gist of the method:
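Kinase activity is measured as Lance signal (665 nm, or 665/615 nm ratio) from europium-labelled anti-phospho-Thr37/46 antibody binding ULight-4E-BP1 peptide. Reactions contain 0.5 nM enzyme, 1 mM ATP, 1% DMSO and run 60 min at 23 °C before EDTA quench.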

The target in assay [4] is CDK2/CCNE1 (Homo sapiens, UniProt P24941). Put plainly: CDK2 homogeneous time-resolved fluorescence (HTRF) kinase assay. The conditions noted are these: CDK2/CCNE. A digest of the protocol:
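IC50 derived from 11-point, half-log dilutions (usually top 10 μM) of compound, 1% DMSO. Kinase (3 nM CDK2/CCNE1) was preincubated with compound 20 min, then phosphorylated 50 nM ULight-4E-BP1 peptide at 1 mM ATP for 60 min, 23 °C. Europium-antibody TR-FRET read after EDTA stop.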

Setting [5] is: 25-250 nM marked x, read-out: CDK4/CCND IC50 25-250 nM.
Setting [6] is: 25-250 nM marked x, read-out: CDK6/CCND IC50 25-250 nM.
The mark [7] stands for this setting: 25-250 nM marked x, read-out: CDK1/CCNB IC50 25-250 nM.
Setting [8] is: <25 nM, read-out: CDK2/CCNE IC50 <25 nM.
The mark [9] stands for this setting: >250 nM marked x, read-out: CDK1/CCNB IC50 >250 nM.
The mark [10] stands for this setting: <25 nM, read-out: CDK4/CCND IC50 <25 nM.
[11] abbreviates: <25 nM, read-out: CDK6/CCND IC50 <25 nM.
Setting [12] is: 25-250 nM marked x, read-out: CDK2/CCNE IC50 25-250 nM.
[13] abbreviates: >250 nM marked x, read-out: CDK4/CCND IC50 >250 nM.
[14] abbreviates: >250 nM marked x, read-out: CDK6/CCND IC50 >250 nM.
Where [15] appears, read: >250 nM marked x, read-out: CDK2/CCNE IC50 >250 nM.

Chain of CDK1/CCNB1 (P06493 whole entry): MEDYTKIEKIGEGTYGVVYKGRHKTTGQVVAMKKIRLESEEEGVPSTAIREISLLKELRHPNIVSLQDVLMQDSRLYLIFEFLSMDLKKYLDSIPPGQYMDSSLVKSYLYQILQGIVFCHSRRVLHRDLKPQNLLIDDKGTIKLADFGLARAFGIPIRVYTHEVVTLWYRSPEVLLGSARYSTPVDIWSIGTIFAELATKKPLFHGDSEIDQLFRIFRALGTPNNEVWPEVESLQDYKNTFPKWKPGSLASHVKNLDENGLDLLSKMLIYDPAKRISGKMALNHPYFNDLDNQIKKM
Chain of CDK1/CCNB1 (P14635 whole entry partner): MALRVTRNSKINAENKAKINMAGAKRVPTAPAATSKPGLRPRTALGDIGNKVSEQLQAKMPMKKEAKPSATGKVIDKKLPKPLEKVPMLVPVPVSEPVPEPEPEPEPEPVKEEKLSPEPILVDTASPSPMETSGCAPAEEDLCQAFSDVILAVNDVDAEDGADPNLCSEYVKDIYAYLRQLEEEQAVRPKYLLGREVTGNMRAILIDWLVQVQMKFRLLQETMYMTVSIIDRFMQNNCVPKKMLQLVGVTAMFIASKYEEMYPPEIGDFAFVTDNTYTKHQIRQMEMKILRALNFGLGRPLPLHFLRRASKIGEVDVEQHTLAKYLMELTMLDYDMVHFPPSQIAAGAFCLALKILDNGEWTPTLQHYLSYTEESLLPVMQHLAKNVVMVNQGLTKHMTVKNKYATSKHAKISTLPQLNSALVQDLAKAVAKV
Chain of CDK6/CCND1 (Q00534 whole entry): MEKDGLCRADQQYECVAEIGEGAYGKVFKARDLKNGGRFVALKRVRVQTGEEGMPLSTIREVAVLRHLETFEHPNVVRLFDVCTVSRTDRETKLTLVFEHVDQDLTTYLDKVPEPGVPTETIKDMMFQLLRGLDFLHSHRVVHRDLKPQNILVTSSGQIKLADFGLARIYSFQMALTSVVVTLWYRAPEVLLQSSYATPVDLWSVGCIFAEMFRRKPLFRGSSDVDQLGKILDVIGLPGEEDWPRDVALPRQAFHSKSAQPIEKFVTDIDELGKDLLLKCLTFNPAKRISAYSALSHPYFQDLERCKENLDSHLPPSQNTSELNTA
Chain of CDK6/CCND1 (P24385 whole entry partner): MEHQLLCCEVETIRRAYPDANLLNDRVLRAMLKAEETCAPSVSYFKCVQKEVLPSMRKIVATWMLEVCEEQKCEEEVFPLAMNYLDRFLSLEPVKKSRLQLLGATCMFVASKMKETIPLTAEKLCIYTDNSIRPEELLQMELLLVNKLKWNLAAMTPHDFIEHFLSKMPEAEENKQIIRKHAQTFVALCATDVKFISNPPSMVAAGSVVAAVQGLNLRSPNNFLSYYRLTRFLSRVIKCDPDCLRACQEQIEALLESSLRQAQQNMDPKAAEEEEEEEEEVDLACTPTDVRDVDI
Chain of CDK4/CCND3 (P11802 whole entry): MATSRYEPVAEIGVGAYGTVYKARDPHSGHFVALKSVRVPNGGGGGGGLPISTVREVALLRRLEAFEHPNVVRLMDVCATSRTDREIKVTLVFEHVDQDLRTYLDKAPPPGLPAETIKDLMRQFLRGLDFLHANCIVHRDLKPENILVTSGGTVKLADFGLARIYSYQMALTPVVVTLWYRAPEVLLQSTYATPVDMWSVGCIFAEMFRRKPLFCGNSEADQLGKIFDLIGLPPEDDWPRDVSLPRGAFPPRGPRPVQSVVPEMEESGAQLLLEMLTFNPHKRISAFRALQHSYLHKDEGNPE
Chain of CDK4/CCND3 (P30281 whole entry partner): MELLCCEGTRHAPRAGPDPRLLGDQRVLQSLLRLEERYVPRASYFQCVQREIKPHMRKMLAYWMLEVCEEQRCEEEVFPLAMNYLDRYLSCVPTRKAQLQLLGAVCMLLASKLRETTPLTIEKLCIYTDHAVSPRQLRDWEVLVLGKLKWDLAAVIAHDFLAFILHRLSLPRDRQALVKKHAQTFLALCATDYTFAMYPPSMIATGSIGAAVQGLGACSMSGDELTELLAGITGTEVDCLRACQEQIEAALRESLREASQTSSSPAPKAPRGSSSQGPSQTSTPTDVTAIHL

As for `CS(=O)(=O)N1CCC(Nc2cc3c(N4CCCC(CO)C4)nccc3cn2)CC1` (racemic) [Ex 40, (1-(7-((1-(methylsulfonyl)piperidin-4-yl)amino)-2,6-naphthyridin-1-yl)piperidin-3-yl)methanol], the IC50 in assay [1] (setting [5]) is 25 to 250 nM; in assay [2] (setting [6]) it was 25 to 250 nM; in assay [3] (setting [7]), 25 to 250 nM; in assay [4] (setting [8]) it was under 25 nM.

Consider `CS(=O)(=O)N1CCC(Nc2cc3c(N4CCCC(O)C4)nccc3cn2)CC1` (racemic) [Ex 42, 1-(7-((1-(methylsulfonyl)piperidin-4-yl)amino)-2,6-naphthyridin-1-yl)piperidin-3-ol], for which the IC50 in assay [1] (setting [5]) was 25 to 250 nM; in assay [2] (setting [6]) it was 25 to 250 nM; in assay [3] (setting [7]), 25 to 250 nM; in assay [4] (setting [8]) it was under 25 nM.

Take `CS(=O)(=O)N1CCC(Nc2cc3c(N4CCC(C#N)C4)nccc3cn2)CC1` (racemic) [Ex 45, 1-(7-((1-(methylsulfonyl)piperidin-4-yl)amino)-2,6-naphthyridin-1-yl)pyrrolidine-3-carbonitrile]: the IC50 in assay [1] (setting [5]) is 25 to 250 nM; in assay [2] (setting [6]) it was 25 to 250 nM; in assay [3] (setting [9]), over 250 nM; in assay [4] (setting [8]) it was under 25 nM.

On to `CN(C)C1CCCN(c2nccc3cnc(NC4CCN(S(C)(=O)=O)CC4)cc23)CC1` (racemic) [Ex 52, 5-(4-(dimethylamino)azepan-1-yl)-N-(1-(methylsulfonyl)piperidin-4-yl)-2,6-naphthyridin-3-amine], for which the IC50 in assay [1] (setting [10]) is under 25 nM; in assay [2] (setting [11]) it was under 25 nM; in assay [3] (setting [9]), over 250 nM; in assay [4] (setting [12]), 25 to 250 nM.

As for `O=C(NC1CCSC1=O)c1ccc(Nc2cc3c(C4=CCCCC4)nccc3cn2)cc1` (racemic) [Ex 114, 4-((5-(cyclohex-1-en-1-yl)-2,6-naphthyridin-3-yl)amino)-N-(2-oxotetrahydrothiophen-3-yl)benzamide], the IC50 in assay [1] (setting [10]) is under 25 nM; in assay [2] (setting [11]) it was under 25 nM; in assay [3] (setting [7]), 25 to 250 nM; in assay [4] (setting [8]) it was under 25 nM.

As for `CS(=O)(=O)c1ccc(Nc2cc3c(C4=CCC(O)CC4)nccc3cn2)cc1` (racemic) [Ex 120, 4-(7-((4-(methylsulfonyl)phenyl)amino)-2,6-naphthyridin-1-yl)cyclohex-3-en-1-ol], the IC50 in assay [1] (setting [5]) was 25 to 250 nM; in assay [2] (setting [6]), 25 to 250 nM; in assay [3] (setting [9]), over 250 nM; in assay [4] (setting [8]), under 25 nM.

On to `CS(=O)(=O)c1ccc(Nc2cc3c(C4=CCC(C#N)CC4)nccc3cn2)cc1` (racemic) [Ex 121, 4-(7-((4-(methylsulfonyl)phenyl)amino)-2,6-naphthyridin-1-yl)cyclohex-3-ene-1-carbonitrile], for which the IC50 in assay [1] (setting [5]) was 25 to 250 nM; in assay [2] (setting [6]) it was 25 to 250 nM; in assay [3] (setting [9]), over 250 nM; in assay [4] (setting [8]), under 25 nM.

Consider `C=CS(=O)(=O)c1ccc(Nc2cc3c(N4CCC(C#N)C4)nccc3cn2)cc1` (racemic) [Ex 122, 1-(7-((4-(vinylsulfonyl)phenyl)amino)-2,6-naphthyridin-1-yl)pyrrolidine-3-carbonitrile], for which the IC50 in assay [1] (setting [13]) is over 250 nM; in assay [2] (setting [14]), over 250 nM; in assay [3] (setting [9]) it was over 250 nM; in assay [4] (setting [12]), 25 to 250 nM.

With `CS(=O)(=O)c1ccc(Nc2cc3c(C#CC4CC(O)C4)nccc3cn2)cc1` (racemic) [Ex 147, 3-((7-((4-(methylsulfonyl)phenyl)amino)-2,6-naphthyridin-1-yl)ethynyl)cyclobutan-1-ol], the IC50 is 25 to 250 nM in assay [1] (setting [5]), 25 to 250 nM in assay [2] (setting [6]), 25 to 250 nM in assay [3] (setting [7]) and under 25 nM in assay [4] (setting [8]).

In the case of `Cc1c(-c2nccc3cnc(Nc4ccc(S(C)(=O)=O)cc4)cc23)ccc2c1cnn2CC1CCNC1` (racemic) [Ex 193, 5-(4-methyl-1-(pyrrolidin-3-ylmethyl)-1H-indazol-5-yl)-N-(4-(methylsulfonyl)phenyl)-2,6-naphthyridin-3-amine], the IC50 in assay [1] (setting [5]) is 25 to 250 nM; in assay [2] (setting [6]), 25 to 250 nM; in assay [3] (setting [9]) it was over 250 nM; in assay [4] (setting [8]), under 25 nM.

For the compound `CS(=O)(=O)c1ccc(Nc2cc3c(C4CCC(O)CC4)nccc3cn2)cc1` (racemic) [Ex 215, 4-(7-((4-(methylsulfonyl)phenyl)amino)-2,6-naphthyridin-1-yl)cyclohexan-1-ol], the IC50 is over 250 nM in assay [1] (setting [13]), over 250 nM in assay [2] (setting [14]), over 250 nM in assay [3] (setting [9]) and 25 to 250 nM in assay [4] (setting [12]).

As for `O=S(=O)(CCO)c1ccc(Nc2cc3c(N4CCC(O)C4)nccc3cn2)cc1` (racemic) [Ex 221, 1-(7-((4-((2-hydroxyethyl)sulfonyl)phenyl)amino)-2,6-naphthyridin-1-yl)pyrrolidin-3-ol], the IC50 was over 250 nM in assay [1] (setting [13]), over 250 nM in assay [2] (setting [14]), over 250 nM in assay [3] (setting [9]) and 25 to 250 nM in assay [4] (setting [12]).

Consider `CN1CCC(c2nccc3cnc(Nc4ccc(S(C)(=O)=O)cc4)cc23)C1` (racemic) [Ex 229, 5-(1-methylpyrrolidin-3-yl)-N-(4-(methylsulfonyl)phenyl)-2,6-naphthyridin-3-amine], for which the IC50 in assay [1] (setting [13]), in assay [2] (setting [14]), in assay [3] (setting [9]) and in assay [4] (setting [15]) was over 250 nM throughout.

As to `CS(=O)(=O)c1ccc(Nc2cc3c(C4CCN(Cc5ccccc5)C4)nccc3cn2)cc1` (racemic) [Ex 230, 5-(1-benzylpyrrolidin-3-yl)-N-(4-(methylsulfonyl)phenyl)-2,6-naphthyridin-3-amine], the IC50 in assay [1] (setting [13]), in assay [2] (setting [14]), in assay [3] (setting [9]) and in assay [4] (setting [15]) was over 250 nM in each case.

Regarding `COc1ccc(CN2CCC(c3nccc4cnc(Nc5ccc(S(C)(=O)=O)cc5)cc34)C2)cc1` (racemic) [Ex 231, 5-(1-(4-methoxybenzyl)pyrrolidin-3-yl)-N-(4-(methylsulfonyl)phenyl)-2,6-naphthyridin-3-amine], the IC50 in assay [1] (setting [13]), in assay [2] (setting [14]), in assay [3] (setting [9]) and in assay [4] (setting [15]) was over 250 nM throughout.

On to `CS(=O)(=O)c1ccc(Nc2cc3c(C4CCN(Cc5cccnc5)C4)nccc3cn2)cc1` (racemic) [Ex 232, N-(4-(methylsulfonyl)phenyl)-5-(1-(pyridin-3-ylmethyl)pyrrolidin-3-yl)-2,6-naphthyridin-3-amine], for which the IC50 in assay [1] (setting [13]), in assay [2] (setting [14]), in assay [3] (setting [9]) and in assay [4] (setting [15]) was over 250 nM throughout.

Regarding `CS(=O)(=O)c1ccc(Nc2cc3c(C4CCN(Cc5ccc(Cl)cc5)C4)nccc3cn2)cc1` (racemic) [Ex 233, 5-(1-(4-chlorobenzyl)pyrrolidin-3-yl)-N-(4-(methylsulfonyl)phenyl)-2,6-naphthyridin-3-amine], the IC50 is over 250 nM in assay [1] (setting [13]), over 250 nM in assay [2] (setting [14]), over 250 nM in assay [3] (setting [9]) and 25 to 250 nM in assay [4] (setting [12]).
